“Also recorded” adds a separate entry of the source.
Test system: influenza A/PR/8/34
Set-up: species or system C57/BL6 mice
Details: mouse, in vivo

## CN[C@H]1CC[C@@H](c2ccc(Cl)c(Cl)c2)c2ccccc21 [Sertraline]
  survival rate, result in words: dose dependant increase in survival rate; also recorded: improves survival rate

Source: patent US20100081713A1, “COMPOSITIONS AND METHODS FOR TREATING VIRAL INFECTIONS” (priority 2008, published 2010)
